Source: the supplement of paper PMC10307832

Legend:
Test in all cases: relative viability (nuclei count vs DMSO), 5 days (fraction); higher = more cells survive
Kobe2602 + Linsitinib = compound: C1=CC(=CC=C1NC(=S)NNC2=C(C=C(C=C2[N+](=O)[O-])C(F)(F)F)[N+](=O)[O-])F [Kobe2602] + C[C@]1(O)C[C@@H](c2nc(-c3ccc4ccc(-c5ccccc5)nc4c3)c3c(N)nccn32)C1 [Linsitinib] (partner 1 µM)
Summary of the method: (§1)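 Lung cancer cell lines were pin-tool dosed in 1536-well plates on the day after seeding, with either a lone drug or a fixed anchor-drug dose plus five library-drug doses (not always all listed) in √10 steps. Nuclei were counted on 4× images after 5 days. Relative viability is the ratio of treated-well to vehicle-well nuclei counts, with each value a median of duplicate plates.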

Kobe2602 + Bortezomib = compound: C1=CC(=CC=C1NC(=S)NNC2=C(C=C(C=C2[N+](=O)[O-])C(F)(F)F)[N+](=O)[O-])F [Kobe2602] + CC(C)C[C@H](NC(=O)[C@H](Cc1ccccc1)NC(=O)c1cnccn1)B(O)O [Bortezomib] (partner 0.002 µM)
Summary of the method: as §1

Zosuquidar + Dasatinib = compound: O[C@@H](COc1cccc2ncccc12)CN1CCN([C@@H]2c3ccccc3[C@@H]3[C@H](c4ccccc42)C3(F)F)CC1 [Zosuquidar] + Cc1nc(Nc2ncc(C(=O)Nc3c(C)cccc3Cl)s2)cc(N2CCN(CCO)CC2)n1 [Dasatinib] (partner 0.075 µM)
Summary of the method: as §1

Kobe2602 + Phenformin = compound: C1=CC(=CC=C1NC(=S)NNC2=C(C=C(C=C2[N+](=O)[O-])C(F)(F)F)[N+](=O)[O-])F [Kobe2602] + N=C(N)NC(=N)NCCc1ccccc1 [Phenformin] (partner 250 µM)
Summary of the method: as §1

Cell Line | relative viability (Kobe2602 + Linsitinib; first compound 0.2 µM) | relative viability (Kobe2602 + Linsitinib; first compound 0.6325 µM) | relative viability (Kobe2602 + Linsitinib; first compound 2 µM) | relative viability (Kobe2602 + Linsitinib; first compound 6.325 µM) | relative viability (Kobe2602 + Linsitinib; first compound 20 µM) | relative viability (Kobe2602 + Bortezomib; first compound 0.2 µM) | relative viability (Kobe2602 + Bortezomib; first compound 0.6325 µM) | relative viability (Kobe2602 + Bortezomib; first compound 2 µM) | relative viability (Kobe2602 + Bortezomib; first compound 6.325 µM) | relative viability (Kobe2602 + Bortezomib; first compound 20 µM) | relative viability (Zosuquidar + Dasatinib; first compound 0.01 µM) | relative viability (Zosuquidar + Dasatinib; first compound 0.03162 µM) | relative viability (Zosuquidar + Dasatinib; first compound 0.1 µM) | relative viability (Zosuquidar + Dasatinib; first compound 0.3162 µM) | relative viability (Zosuquidar + Dasatinib; first compound 1 µM) | relative viability (Kobe2602 + Phenformin; first compound 0.2 µM) | relative viability (Kobe2602 + Phenformin; first compound 0.6325 µM) | relative viability (Kobe2602 + Phenformin; first compound 2 µM) | relative viability (Kobe2602 + Phenformin; first compound 6.325 µM) | relative viability (Kobe2602 + Phenformin; first compound 20 µM)
NCI-H1755 | 0.949 | 0.898 | 0.986 | 0.977 | 0.982 | 1.04 | 0.971 | 0.895 | 0.96 | 1 | 0.401 | 0.383 | 0.375 | 0.451 | 0.415 | 0.615 | 0.608 | 0.601 | 0.662 | 0.568
A-427 | 1.1 | 1.15 | 1.09 | 0.954 | 1.17 | 0.998 | 0.991 | 0.982 | 0.779 | 1.07 | 0.603 | 0.684 | 0.634 | 0.709 | 0.8 | 0.416 | 0.413 | 0.364 | 0.303 | 0.307
PC-3 [JPC-3] | 0.952 | 0.872 | 0.965 | 0.976 | 0.956 | 0.905 | 0.812 | 0.766 | 0.871 | 0.795 | 1 | 1.02 | 0.941 | 0.927 | 0.964 | 0.489 | 0.508 | 0.525 | 0.464 | 0.502
LOU-NH91 | 0.997 | 0.983 | 1 | 0.922 | 0.965 | 0.518 | 0.454 | 0.469 | 0.478 | 0.527 | 0.515 | 0.377 |  | 0.601 | 0.552 | 0.669 | 0.775 | 0.639 | 0.614 | 0.658
BEN | 0.988 | 1.06 | 0.967 | 0.858 | 0.915 | 0.908 | 0.897 | 0.938 | 0.821 | 0.99 | 0.31 | 0.281 | 0.299 | 0.314 | 0.258 | 0.264 | 0.295 | 0.302 | 0.246 | 0.25
NCI-H2085 | 0.926 | 0.829 | 0.864 | 0.977 | 0.97 | 1.07 | 1.08 | 0.99 | 1.07 | 1.11 | 0.247 | 0.234 | 0.19 | 0.243 | 0.228 | 0.682 | 0.687 |  | 0.684 | 0.708
LC-2-ad | 0.849 | 0.833 | 0.774 | 0.867 | 0.865 | 0.946 | 1 | 0.941 | 1.02 | 0.993 | 0.509 | 0.74 | 0.531 | 0.589 | 0.613 | 0.567 | 0.618 | 0.512 | 0.586 | 0.55
ABC-1 | 0.609 | 0.984 | 0.722 | 0.876 | 0.735 | 0.42 | 0.256 | 0.283 | 0.35 | 0.336 | 0.625 | 0.592 | 0.575 | 0.766 | 0.532 | 0.215 | 0.233 |  | 0.211 | 0.227
NCI-H727 | 0.306 | 0.319 | 0.253 | 0.239 | 0.324 | 0.901 | 0.883 | 0.83 | 0.885 | 0.851 | 0.373 | 0.387 | 0.424 | 0.429 | 0.355 | 0.594 | 0.559 | 0.535 | 0.52 | 0.633
NCI-H1792 | 0.563 | 0.53 | 0.613 | 0.521 | 0.558 | 0.965 | 0.901 | 1.09 | 0.985 | 0.986 | 0.819 | 0.514 |  | 0.927 | 0.757 | 0.253 | 0.344 | 0.249 | 0.316 | 0.31
EPLC-272H | 1.2 | 1.2 | 1.23 | 1.36 | 0.447 | 1.03 | 1.01 | 0.778 | 0.866 | 0.873 | 0.381 | 0.316 | 0.331 | 0.325 | 0.389 | 0.313 | 0.32 | 0.31 | 0.323 | 0.294
NCI-H1563 | 1.1 | 1.39 | 1.08 | 1.14 | 1.34 | 0.954 | 1.13 | 0.71 | 0.933 | 0.794 | 0.435 | 0.47 | 0.51 | 0.459 | 0.454 | 0.684 | 0.719 | 0.675 | 0.668 | 0.676
EKVX | 1.02 | 1.02 | 0.919 | 0.971 | 1.03 | 1.13 | 1.08 | 0.994 | 1.02 | 1.1 | 0.694 | 0.38 | 0.558 | 0.657 | 0.488 | 0.27 | 0.237 | 0.22 | 0.233 | 0.248
NCI-H1666 | 0.683 | 0.76 |  | 0.713 | 0.76 | 0.919 | 0.728 |  | 0.737 | 0.867 | 0.785 | 0.818 | 0.869 | 0.9 | 0.761 | 0.594 | 0.572 | 0.534 | 0.581 | 0.573
HCC-15 | 0.881 | 0.919 | 0.872 | 0.832 | 0.899 | 0.959 | 1.1 | 0.964 | 0.994 | 1.03 | 0.559 | 0.581 | 0.592 | 0.663 | 0.612 | 0.482 | 0.494 | 0.443 | 0.43 | 0.363
LCLC-103H | 1.05 | 1.1 | 1.1 | 1.09 | 0.984 | 1.15 | 1.11 | 1.04 | 1.13 | 1.01 | 0.429 | 0.447 | 0.399 | 0.488 | 0.537 | 0.359 | 0.381 | 0.32 | 0.343 | 0.351
